# Read-outs that look alike come from different tables or passages of the source.
# How the values were obtained:
# HCT15 cells = assay: cells; format: cell-based, human; settings: HCT15 cells; for HCT-15 + verapamil % Kill / HCT-15 % Kill: maximum % cell killing
# Description: (§1) To test the ability of the disclosed tubulysin payloads to kill human cell lines, an in vitro cytotoxicity assay was performed. In vitro cytotoxicity of the disclosed payloads, as well as reference compounds, were evaluated using the CellTiter-Glo Assay Kit (Promega, Cat #G7573), in which the quantity of ATP present is used to determine the number of viable cells in culture. For the assay, C4-2, HEK293, or T47D cells were seeded at 4000 cells/well on Nunclon white 96-well plates in complete growth medium (DME high glucose:Ham's F12 at 4:1, 10% FBS, 100 units/ml Penicillin, 100 ug/ml streptomycin, 53 ug/ml glutatmine, 10 ug/ml insulin, 220 ng/ml biotin, 12.5 pg/ml T3, 12.5 ug/ml Adenine, 4 ug/ml transferrin for C42 cells; DME high glucose, 10% FBS, 100 units/ml Penicillin, 100 ug/ml streptomycin, 53 ug/ml glutatmine for HEK293; RPMI, 10% FBS, 100 units/ml Penicillin, 100 ug/ml streptomycin, 53 ug/ml glutatmine, 10 ug/ml insulin, 10 mM HEPEs, 200 nM Sodium Pyruvate for T47D cells) and grown overnight at 37° C. in 5% CO2. For cell viability curves, 1:3 serially diluted payloads were added to the cells at final concentrations ranging from 100 nM to […], including a no treatment control group, and were then incubated for 5 days. After the 5-day incubation, cells were incubated at room temperature with 100 μL of CellTiter-Glo reagents for 10 minutes. Relative luminescence units (RLU) were determined on a Victor plate reader (PerkinElmer). The IC50 values were determined from a four-parameter logistic equation over a 10-point response curve (GraphPad Prism). All IC50 values are expressed in molar (M) concentration. The percent cell killing (% kill) at the maximum concentration tested was estimated from the following formula (100−% viable cells). Averages±standard deviation (SD) are included where replicate experiments were performed.
# In vitro cytotoxicity of the disclosed payloads as well as reference compounds were evaluated similarly as described above except using 1000 HCT15 cells, a colorectal carcinoma cell line, in growth medium (RPMI, 10% FBS, 100 units/ml Penicillin, 100 ug/ml streptomycin, 53 ug/ml glutatmine) with or without 5 ug/mL of Verapamil.
# C4-2 cells = assay: Cell-based killing assay of payloads (CellTiter-Glo), C4-2 cells; design: species or system human; settings: 5-day incubation; for IC50: Homo sapiens, C4-2, 120 h, average ± SD where replicates; for C4-2 % Kill: at maximum concentration tested (100 − % viable cells)
# Description: as §1
# HL60/MX2 cells = assay: Cytotoxicity in panel of MDR cell lines, HL60/MX2 (72 h and 144 h); format: cell-based, human; settings: for IC50: Homo sapiens
# Description: as §1
# (§2) To further test the ability of the disclosed tubulysin payloads, a cytotoxicity assay was performed using a panel of multidrug resistant (MDR) cell lines. In vitro cytotoxicity of the disclosed payloads as well as reference compounds were similarly evaluated as described above except using HCT-15 cells, a colorectal carcinoma cell line; H69AR, a doxorubicin resistant MDR derivative of the small cell lung cancer carcinoma cell line NCI-H69; MES-SA/MX2, a mitoxantrone resistant MDR derivative of the uterine sarcoma cell line MES-SA; and HL60/MX2, a mitoxantrone resistant MDR derivative of the acute promyelocytic leukemia cell line HL60. In these assays, cytotoxicity was evaluated in normal growth media (RPMI, 10% FBS, 100 units/ml Penicillin, 100 ug/ml streptomycin, and 53 ug/ml glutatmine for HCT-15 and HL60/MX2; RPMI, 20% FBS, 100 units/ml Penicillin, 100 ug/ml streptomycin, and 53 ug/ml glutatmine for H69-AR; Waymouths's:McCoy's (1:1), 10% FBS, 100 units/ml Penicillin, 100 ug/ml streptomycin, and 53 ug/ml glutatmine for MES-SA/MX2) with 1000 cells per well following 72 h and 144 h incubation with payloads.
# H69AR cells = assay: Cytotoxicity in panel of MDR cell lines, H69AR (72 h and 144 h); format: cell-based, human; settings: for IC50: Homo sapiens
# Description: as §1, §2
# MES-SA/MX2 cells = assay: Cytotoxicity in panel of MDR cell lines, MES-SA/MX2 (72 h and 144 h); format: cell-based, human; settings: for IC50: Homo sapiens
# Description: as §1, §2
# HCT-15 cells = assay: Cytotoxicity in panel of MDR cell lines, HCT-15 (72 h and 144 h); format: cell-based, human; settings: for IC50: Homo sapiens
# Description: as §1, §2
# [1] = with 5 ug/mL Verapamil, read-out: HCT-15 + verapamil IC50
# [2] = Homo sapiens, HCT-15, without Verapamil, read-out: HCT-15 IC50
# [3] = 72 h incubation, read-out: HL60/MX2 IC50 72 h
# [4] = 144 h incubation, read-out: HL60/MX2 IC50 144 h
# [5] = 72 h incubation, read-out: H69AR IC50 72 h
# [6] = 144 h incubation, read-out: H69AR IC50 144 h
# [7] = 72 h incubation, read-out: MES-SA/MX2 IC50 72 h
# [8] = 144 h incubation, read-out: MES-SA/MX2 IC50 144 h
# [9] = 72 h incubation, read-out: HCT-15 IC50 72 h
# [10] = 144 h incubation, read-out: HCT-15 IC50 144 h
SMILES,HCT-15 + verapamil % Kill (HCT15 cells; with 5 ug/mL Verapamil) [%],IC50 (HCT15 cells; [1]) [nM],HCT-15 % Kill (HCT15 cells; without Verapamil) [%],IC50 (HCT15 cells; [2]) [nM],HL60/MX2 % Kill 72 h (HL60/MX2 cells; 72 h incubation) [%],HL60/MX2 % Kill 144 h (HL60/MX2 cells; 144 h incubation) [%],IC50 (HL60/MX2 cells; [3]) [nM],IC50 (HL60/MX2 cells; [4]) [nM],H69AR % Kill 72 h (H69AR cells; 72 h incubation) [%],H69AR % Kill 144 h (H69AR cells; 144 h incubation) [%],IC50 (H69AR cells; [5]) [nM],IC50 (H69AR cells; [6]) [nM],MES-SA/MX2 % Kill 72 h (MES-SA/MX2 cells; 72 h incubation) [%],MES-SA/MX2 % Kill 144 h (MES-SA/MX2 cells; 144 h incubation) [%],IC50 (MES-SA/MX2 cells; [7]) [nM],IC50 (MES-SA/MX2 cells; [8]) [nM],HCT-15 % Kill 72 h (HCT-15 cells; 72 h incubation) [%],HCT-15 % Kill 144 h (HCT-15 cells; 144 h incubation) [%],IC50 (HCT-15 cells; [9]) [nM],IC50 (HCT-15 cells; [10]) [nM],also measured
"C#CCCCCN(C(=O)[C@@H](NC(=O)[C@H]1CCCCN1C)[C@@H](C)CC)[C@H](C[C@@H](OC(C)=O)c1nc(C(=O)N[C@@H](Cc2ccccc2)CC(C)(C)C(=O)O)cs1)C(C)C [IVb, (4S)-4-({2-[(1R,3R)-1-(Acetyloxy)-3-[(2S,3S)—N-(hex-5-yn-1-yl)-3-methyl-2-{[(2R)-1-methylpiperidin-2-yl]formamido}pentanamido]-4-methylpentyl]-1,3-thiazol-4-yl}formamido)-2,2-dimethyl-5-phenylpentanoic acid]",98.1,0.103,98,0.151,–,–,–,–,–,–,–,–,–,–,–,–,–,–,–,–,–
"CC[C@H](C)[C@H](NC(=O)[C@H]1CCCCN1C)C(=O)N(CCCCc1cn(CC(=O)O)nn1)[C@H](C[C@@H](OC(C)=O)c1nc(C(=O)N[C@@H](Cc2ccc(N)cc2)CC(C)(C)C(=O)O)cs1)C(C)C [IVm, (S)-4-(2-((1R,3R)-1-acetoxy-3-((2S,3S)—N-(4-(1-(carboxymethyl)-1H-1,2,3-triazol-4-yl)butyl)-3-methyl-2-((R)-1-methylpiperidine-2-carboxamido)pentanamido)-4-methylpentyl)thiazole-4-carboxamido)-5-(4-aminophenyl)-2,2-dimethylpentanoic acid]",–,–,–,–,–,–,–,–,–,–,–,–,–,–,–,–,–,–,–,–,IC50 (C4-2 cells): > 100 nM; C4-2 % Kill (C4-2 cells): 8.9%
"CCCCCCN(C(=O)[C@@H](NC(=O)[C@H]1CCCCN1C)[C@@H](C)CC)[C@H](C[C@@H](OC(C)=O)c1nc(C(=O)N[C@@H](Cc2ccc(N)cc2)CC(C)(C)C(=O)O)cs1)C(C)C [IVq, (S)-4-(2-((1R,3R)-1-Acetoxy-3-((2S,3S)—N-hexyl-3-methyl-2-((R)-1-methylpiperidine-2-carboxamido)pentanamido)-4-methylpentyl)thiazole-4-carboxamido)-5-(4-aminophenyl)-2,2-dimethylpentanoic acid]",98.6 ± 0.7,0.0225,98.4 ± 0.8,0.0423,98.6,100,< 0.015,< 0.015,96.9,99.5,0.0642,0.128,99.4,100,0.0589,0.105,98,99.8,< 0.015,0.0277,–
"[2H]c1cc(C[C@@H](CC(C)(C)C(=O)O)NC(=O)c2csc([C@@H](C[C@H](C(C)C)N(CCCCC#C)C(=O)[C@@H](NC(=O)[C@H]3CCCCN3C)[C@@H](C)CC)OC(C)=O)n2)cc([2H])c1N [IVr, (S)-4-(2-((1R,3R)-1-Acetoxy-3-((2S,3S)—N-(hex-5-yn-1-yl)-3-methyl-2-((R)-1-methylpiperidine-2-carboxamido)pentanamido)-4-methylpentyl)thiazole-4-carboxamido)-5-(4-aminophenyl-3,5-d2)-2,2-dimethylpentanoic acid]",99,0.0624,99.1,0.0893,98.7,100,< 0.015,< 0.015,96.7,99,0.137,0.211,99.1,100,0.151,0.176,98,99.7,0.0401,0.0621,–
"CCCCCCN(C(=O)[C@@H](NC(=O)[C@H]1CCCCN1C)[C@@H](C)CC)[C@H](C[C@@H](OC(C)=O)c1nc(C(=O)NC(Cc2ccc(N)c(O)c2)CC(C)(C)C(=O)O)cs1)C(C)C (stereo partly drawn) [IVx, 4-(2-((1R,3R)-1-Acetoxy-3-((2S,3S)—N-hexyl-3-methyl-2-((R)-1-methylpiperidine-2-carboxamido)pentanamido)-4-methylpentyl)thiazole-4-carboxamido)-5-(4-amino-3-hydroxyphenyl)-2,2-dimethylpentanoic acid]",–,–,–,–,96.9,100,0.955,0.77,48.7,38,> 100,> 100,62.1,33.6,> 100,> 100,84.4,91,34.5,84.8,–
"CCCCCCN(C(=O)[C@@H](NC(=O)[C@H]1CCCCN1C)[C@@H](C)CC)[C@H](C[C@@H](OC(C)=O)c1nc(C(=O)N[C@@H](Cc2ccc(N)cc2)CC(C)(C)C(=O)NN)cs1)C(C)C [IVy, (1R,3R)-1-(4-((S)-1-(4-Aminophenyl)-5-hydrazinyl-4,4-dimethyl-5-oxopentan-2-ylcarbamoyl)thiazol-2-yl)-3-((2S,3S)—N-hexyl-3-methyl-2-((R)-1-methylpiperidine-2-carboxamido)pentanamido)-4-methylpentyl acetate]",–,–,–,–,–,–,–,–,–,–,–,–,–,–,–,–,–,–,–,–,IC50 (C4-2 cells): 1.82 nM; C4-2 % Kill (C4-2 cells): 94.4%
"CCCCCCN(C(=O)[C@@H](NC(=O)[C@H]1CCCCN1C)[C@@H](C)CC)[C@H](C[C@@H](OC(C)=O)c1nc(C(=O)N[C@@H](Cc2ccc(F)cc2)CC(C)(C)C(=O)O)cs1)C(C)C [VIII, (4S)-4-({2-[(1R,3R)-1-(Acetyloxy)-3-[(2S,3S)—N-hexyl-3-methyl-2-{[(2R)-1-methylpiperidin-2-yl]formamido}pentanamido]-4-methylpentyl]-1,3-thiazol-4-yl}formamido)-5-(4-fluorophenyl)-2,2-dimethylpentanoic acid]",–,–,–,–,–,–,–,–,–,–,–,–,–,–,–,–,–,–,–,–,"IC50 (HCT15 cells; with 5 ug/mL Verapamil, read-out: HCT-15 + verapamil IC50 (value in brackets)): 0.106 nM; IC50 (HCT15 cells; Homo sapiens, HCT-15, without Verapamil, read-out: HCT-15 IC50 (value in brackets)): 0.295 nM"

# From patent US12144864B2, “Tubulysins and protein-tubulysin conjugates” (Regeneron Pharmaceuticals, Inc., priority 2018, dated 2024)
